Earlier results as cited in patent US20140294790A1, “METHOD OF PREVENTING, CONTROLLING AND AMELIORATING URINARY TRACT INFECTIONS AND SUPPORTING DIGESTIVE HEALTH BY USING A SYNERGISTIC CRANBERRY DERIVATIVE, A D-MANNOSE COMPOSITION AND A PROPRIETARY PROBIOTIC BLEND” (U.S. NUTRACEUTICALS, LLC d/b/a Valensa International, priority 2008, published 2014).

Measured: antibacterial activity

acidophilin
demonstrated activity: Salmonella enteritidis | Escherichia coli | Staphylococcus aureus | Salmonella typhimurium | Bacillus subtilis | Clostridium perfringens
